Usually EC50 stands for the concentration needed to bring the measured effect to its halfway point. A word on the inhibition: it is the relative decrease from the control value, in per cent.

The text below walks through data of patent publication US20240050463A1, “THERAPEUTIC COMPOSITIONS AND METHODS FOR TREATING HEPATITIS B” (ARBUTUS BIOPHARMA CORPORATION, priority 2016, published 2024).

The subject of test [1] is HBeAg, D type HBV in primary human hepatocytes (PHH). Nature of the test: microbe, parasite or virus in culture. The format is cell-based. As for the experimental part: (§1) The mouse liver perfusion was applied to isolate PHHs. The isolated hepatocytes were further purified by Percoll. The cells were resuspended with culture media and seeded into the 96-well plates (6×10^4 cell/well) or 48-well plates (1.2×10^5 cell/well). The PHHs were infected with a D type HBV one day post seeding (day 1).
(§2) On day 2, the test compounds were diluted and added into the cell culture plates. The culture media containing the compounds were refreshed every other day. The cell culture supernatants were collected on day 8 for the HBV DNA and antigen determinations.
(§3) The compounds were tested at 7 concentrations, 3-fold dilution, in triplicate.
(§4) Two compounds were tested at 5×5 matrix, in triplicate plates.
(§5) HBsAg/HBeAg in the culture supernatants harvested on days 8 were measured by the HBsAg/HBeAg ELISA kit (Autobio) according to the manual. The samples were diluted with PBS to get the signal in the range of the standard curve. The inhibition rates were calculated with the formula below. The combination effect was analyzed by the MacSynergy software.
% Inh. HBeAg=[1−HBeAg quantity of sample/HBV quantity of DMSO control]×100.

Test [2] deals with HBsAg, D type HBV in primary human hepatocytes (PHH). Briefly: microbe, parasite or virus in culture. To be noted: for AVERAGE % INHIBITION, HBsAg: COMPOUND 3 0.00 nM; for AVERAGE % INHIBITION: HBsAg, COMPOUND 22 0.00 nM. The format is cell-based. As for the experimental part:
as §1, §2, §3, §4, §5
% Inh. HBsAg=[1−HBsAg quantity of sample/HBV quantity of DMSO control]×100.

In test [3] the test system is D type HBV in primary human hepatocytes (PHH). Briefly: HBV DNA in culture supernatants of HBV-infected primary human hepatocytes (qPCR), MacSynergy. The test is classed as cell-based. To be noted: for AVERAGE % INHIBITION, HBV DNA: COMPOUND 3 0.00 nM; for AVERAGE % INHIBITION: HBV DNA, COMPOUND 22 0.00 nM. As for the experimental part:
as §1, §2, §3, §4
DNA in the culture supernatants harvested on days 8 were isolated with QIAamp 96 DNA Blood Kit (Qiagen-51161). For each sample, 100 μl of the culture supernatants was used to extract DNA. The DNA was eluted with 100 μl, 150 μl or 180 μl of AE. HBV DNA in the culture supernatants was quantified by qPCR. The combination effect was analyzed by the MacSynergy software. The primers are described below.

In test [4] the test system is HBV rcDNA in HepDE19 cells. Briefly: Inhibition of rcDNA in HepDE19 cells (bDNA assay), checkerboard, MacSynergy II. The test is classed as cell-based, HBV (human hepatoma cell line). To be noted: Hepatitis B virus, HepDE19, read-out: ADDITIVE INHIBITION
As for the experimental part:
In vitro combination studies were conducted using the method of Prichard and Shipman (Prichard M N, and Shipman C Jr., Antiviral Research, 1990, 14(4-5), 181-205; and Prichard M N, et. al., MacSynergy II). HepDE19 cell culture system is a HepG2 (human hepatocarcinoma) derived cell line that supports HBV DNA replication and cccDNA formation in a tetracycline (Tet)-regulated manner and produces HBV rcDNA and a detectable reporter molecule dependent on the production and maintenance of cccDNA (Guo et al 2007. J. Virol 81:12472-12484). HepDE19 (50,000 cells/well) were plated in 96 well collagen-coated tissue-culture treated microtiter plates in DMEM/F12 medium supplemented with 10% fetal bovine serum, 1% penicillin-streptomycin and 1 μg/ml tetracycline and incubated in a humidified incubator at 37° C. and 5% CO2 overnight. Next day, the cells were switched to fresh medium without tetracycline and incubated for 4 hrs at 37° C. and 5% CO2. […] The two inhibitors were tested both singly as well as in combinations in a checkerboard fashion such that each concentration of inhibitor A was combined with each concentration of inhibitor B to determine their combination effects on inhibition of rcDNA production. Following a 7 day-incubation of cells with compound combinations, the level of rcDNA present in the inhibitor-treated wells was measured using a Quantigene 2.0 bDNA assay kit (Affymetrix, Santa Clara, CA) with HBV specific custom probe set and manufacturers instructions. […] The RLU data from the single compound treated cells were analyzed using XL-Fit module in Microsoft Excel to determine EC50 values using a 4-parameter curve fitting algorithm. Concurrently, the effect of compounds on cell viability was assessed using replicate plates, plated at a density of 5,000 cells/well and incubated for 4 days, to determine the ATP content as a measure of cell viability using the cell-titer glo reagent (CTG; Promega Corporation, Madison, WI) as per manufacturer's instructions.
In vitro combination studies were conducted using the method of Prichard and Shipman (Prichard M N, Shipman C, Jr., Antiviral Res, 14, 181-205 (1990)). The HepDE19 cell line was developed as described in Guo et al. (Guo et al., J Virol, 81, 12472-12484 (2007)). It is a human hepatoma cell line stably transfected with the HBV genome, and which can express HBV pregenomic RNA and support HBV rcDNA (relaxed circular DNA) synthesis in a tetracycline-regulated manner. HepDE19 cells were plated in 96 well tissue-culture treated microtiter plates in DMEM/F12 medium supplemented with 10% fetal bovine serum+1% penicillin-streptomycin without tetracycline and incubated in a humidified incubator at 37° C. and 5% CO2 overnight. […] The two inhibitors were tested both singly as well as in combinations in a checkerboard fashion such that each concentration of inhibitor A was combined with each concentration of inhibitor B to determine their combination effects on inhibition of rcDNA production. Following a 48 hour-incubation, the level of rcDNA present in the inhibitor-treated wells was measured using a bDNA assay (Affymetrix) with HBV specific custom probe set and manufacturers instructions. […] Concurrently, the effect of inhibitor combinations on cell viability was assessed using replicate plates that were used to determine the ATP content as a measure of cell viability using the Cell-TiterGlo reagent (Promega) as per manufacturer's instructions.
In vitro combination studies were conducted using the method of Prichard and Shipman (1990) (Prichard M N, Shipman C, Jr. 1990. A three-dimensional model to analyze drug-drug interactions. Antiviral Res 14:181-205 AND Prichard M N. 1992. MacSynergy II, University of Michigan).

In a further test the test system is hepatitis B virus (HBV). Nature of the test: Serum HBsAg in mouse model of HBV (pAAV/HBV1.2 hydrodynamic injection), enzyme immunoassay. The test is classed as in vivo, C3H/HeN mice. To be noted: HBV siRNA 1 mg/kg IV Days 0, 7, 14, poly(I:C) 20 μg HDI Day 0, mean ± SEM. From the text:
A mouse model of hepatitis B virus (HBV) was used to assess the anti-HBV effects of an immune stimulant and HBV-targeting siRNAs, both as independent treatments and in combination with each other.
This plasmid carries a 1.2-fold overlength copy of a HBV genome and expresses HBV surface antigen (HBsAg) amongst other HBV products. Serum HBsAg expression in mice was monitored using an enzyme immunoassay. Animals were sorted (randomized) into groups based on serum HBsAg levels such that a) all animals were confirmed to express HBsAg and b) HBsAg group means were similar to each other prior to initiation of treatments.
Animals were treated with immune stimulant as follows: On Day 0, 20 micrograms of high molecular weight polyinosinic:poly cytidylic acid (poly(I:C)) was administered via HDI. Animals were treated with lipid nanoparticle (LNP)-encapsulated HBV-targeting siRNAs as follows: On each of Days 0, 7 & 14, an amount of test article equivalent to 1 mg/kg siRNA was administered intravenously. A negative control group was included as the HBsAg expression level is not completely stable in this mouse model of HBV; the absolute concentration of serum HBsAg generally declines over time in individual animals.
The effect of the treatments was determined by collecting a small amount of blood on Days 0 (pre-treatment), 3, 7, 14 & 21 and analyzing it for serum HBsAg content. Samples were diluted as appropriate to generate values within the assay range of quantitation where possible. Individual values falling below the lower limit of quantitation (LLOQ) were set as one-half the LLOQ.

Setting [5] is: Hepatitis B virus, Hepatocyte, read-out: AVERAGE % INHIBITION (HBV DNA).
The mark [6] stands for this setting: Hepatitis B virus, Hepatocyte, read-out: AVERAGE % INHIBITION (HBeAg).
[7] abbreviates: Hepatitis B virus, Hepatocyte, read-out: AVERAGE % INHIBITION (HBsAg).

As to `CNC(=O)N[C@H]1CCOc2c(C(=O)Nc3ccc(F)c(F)c3)ccc(F)c21` [Compound 23], the EC50 in test [1] (Hepatitis B virus, Hepatocyte, read-out: Inhibitor B EC50, HBeAg endpoint, determined in an earlier separate experiment) was found to be 4.53 nM; in test [2] (Hepatitis B virus, Hepatocyte, read-out: Inhibitor B EC50), 4.36 nM.
Turning to `COCCCOc1cc2c(cc1OC)-c1cc(=O)c(C(=O)O)cn1C(C(C)C)C2` (stereo not shown) [Compound 25], the “AVERAGE % INHIBITION, HBV DNA” value is −20.98% in test [3] (COMPOUND 25 0.12 nM); −51.8% in test [3] (COMPOUND 25 0.37 nM); 15.24% in test [3] (COMPOUND 25 3.33 nM); 28% in test [3] (COMPOUND 25 10.00 nM); 5.69% in test [3] (COMPOUND 25 […]). Also, the “AVERAGE % INHIBITION” value in test [3] (COMPOUND 25 0.12 nM) was −42.82%; in test [3] (COMPOUND 25 0.37 nM), −46.48%; in test [3] (COMPOUND 25 3.33 nM) it was 16.41%; in test [3] (COMPOUND 25 10.00 nM), 37.39%; in test [3] (COMPOUND 25 […]), −19.21%; in test [1] (HBeAg, COMPOUND 25 […], COMPOUND 22 0.00 nM), 14.98%. The “AVERAGE % INHIBITION” value in test [2] (COMPOUND 25 0.37 nM) stood at 12.93%; in test [2] (COMPOUND 25 […]), 26.4%. Also, the “AVERAGE % INHIBITION, HBeAg” value in test [1] (COMPOUND 25 […], COMPOUND 3 0.00 nM) was 4.51%. The “AVERAGE % INHIBITION, HBsAg” value is listed as −5.09% in test [2] (COMPOUND 25 0.37 nM) and −3.18% in test [2] (COMPOUND 25 […]).
In the case of `CC(C)OC(=O)[C@H](C)N[P@](=O)(CO[C@H](C)Cn1cnc2c(N)ncnc21)Oc1ccccc1` [TAF, tenofovir alafenamide], in test [3] (setting [5]), the inhibition at 0.00012 µM is -2.6%, the inhibition at 0.00037 µM is -1.92%, the inhibition at 0.00333 µM stood at 40.2% and the inhibition at 0.01 µM was 50.2%. For the same molecule, in test [3] (TAF 0.05 nM), the “AVERAGE % INHIBITION, HBV DNA” value was −8.77%. Besides, the “AVERAGE % INHIBITION, HBV DNA” value in test [3] (TAF 0.41 nM) came out at 28.78%. Further, the “AVERAGE % INHIBITION, HBV DNA” value in test [3] (TAF 1.23 nM) is recorded as 63.39%. Also, the “AVERAGE % INHIBITION, HBV DNA” value in test [3] (TAF 3.70 nM) was determined as 78.31%. Besides, in test [1] (setting [6]), the inhibition at 50 pM came to 1.17%, the inhibition at 0.00014 µM is -2.78%, the inhibition at 0.00041 µM was determined as 1.76% and the inhibition at 0.00123 µM is 9.91%. Besides, the inhibition at 0.0037 µM in test [1] (setting [6]) amounted to 11.9%. Further, in test [4], the inhibition at 0.0007813 µM is -4.76% and the inhibition at 0.0015625 µM came to 3.49%. Also, in test [2] (setting [7]), the inhibition at 0.000123457 µM was 29.8%, the inhibition at 0.00037037 µM amounted to 10.8%, the inhibition at 0.00111111 µM was found to be 20.8% and the inhibition at 0.00333333 µM was 9.06%. The inhibition at 0.01 µM in test [2] (setting [7]) came out at 7.97%.
On to “polyinosinic:poly cytidylic acid [Poly(I:C)]”, for which the “Serum HBsAg as percentage of individual pre-treatment baseline” value is 100 ± 0% in the test with hepatitis B virus (HBV) (Day 0 (pre-treatment)); 6.1 ± 1.1% in the test on hepatitis B virus (HBV) (Day 3); 3.5 ± 1.1% with hepatitis B virus (HBV) (Day 7); 3.9 ± 1.4% in the test on hepatitis B virus (HBV) (Day 14); 4.7 ± 2.3% with hepatitis B virus (HBV) (Day 21).
